Test results reported in patent US20210023238A1, “TRIPTOLIDE ANTIBODY CONJUGATES” (City of Hope, priority 2019, published 2021).

Experiments:
Assay type in all cases: cell-based
A549 NSCLC cells = experiment: CCK-8 cell proliferation / cytotoxicity, A549; settings: Homo sapiens, A549 (EGFR+++), 72 h
Description: (§1) H520, H1299, and A549 cells were plated at a density of 3×10^3 cells/well in 96-well multiplates. […] Then after, 10 ul of CCK-8 solution was added to each well and further developed for 2 h. The absorbance values were detected at a wavelength of 450 nm using a Bio-Rad microplate reader. The cell viability was calculated by the optical density (OD) values of treated groups/OD values of control groups (Vehicle/PBS)×100%.

H1299 NSCLC cells = experiment: CCK-8 cell proliferation / cytotoxicity, H1299; settings: Homo sapiens, NCI-H1299, H1299 (EGFR+++), 72 h
Description: as §1

H520 NSCLC cells = experiment: CCK-8 cell proliferation / cytotoxicity, H520; settings: Homo sapiens, NCI-H520, H520 (EGFR+/-), 72 h
Description: as §1

## CC(C)[C@]12O[C@H]1[C@@H]1O[C@]13[C@]1(O[C@H]1C[C@H]1C4=C(CC[C@@]13C)C(=O)OC4)[C@@H]2O [TRP, Triptolide]
A549 NSCLC cells
  IC50: 25 to 50 nM
H1299 NSCLC cells
  IC50: 6.25 to 12.5 nM
H520 NSCLC cells
  IC50: 3.13 nM
